Assay type: in vivo, Sprague–Dawley (SD) rats
Details: rat plasma, single oral gavage of 10 mL/kg ABS, n = 6
Method: All rats underwent an acclimation period of a week and overnight fasting with free access to water only. Rats were randomly selected and administered the ABS (n = 6, biological replicates). Each rat was administered with a single ABS oral gavage dose of 10 mL/kg. Blood samples (approximately 150 μL) were collected from the orbital venous plexus using heparinized tubes at predefined time points (0, 0.033, 0.083, 0.167, 0.25, 0.5, 0.75, 1, 2, 4, 6, 8, 10, 12, 24, 36, 48, and 60 h) post-administration. The technical personnel were proficiently trained in performing orbital venous plexus blood draws, employing a technique designed to minimize discomfort to the animals. All rats received an intragastric administration of 1 mL saline at 6 h post-dosing, after which they were provided with unrestricted access to food and water for the remainder of the experimental period. […]
Chromatographic separation was performed on a Thermo BDS Hypersil C18 column (100 × 4.6 mm, 3 µm) with linear gradient elution at a flow rate of 0.7 mL/min using methanol and water both containing 0.1% acetic acid as the mobile phases A and B, respectively. […] The quantification analysis was conducted under multiple reaction monitoring mode with argon collision gas pressure set at 0.2 Pa for collision-induced dissociation. […]

| Tmax [h] | Compound | t1/2 [h] |
| --- | --- | --- |
|  | Cc1cc(O)c2c(c1)C(=O)c1cc(O)cc(O)c1C2=O [EM, emodin] | 4.63 ± 1.53 |
| 0.20 ± 0.03 | O=C1C[C@@H](c2ccc(O[C@@H]3O[C@H](CO)[C@@H](O)[C@H](O)[C@H]3O)cc2)Oc2cc(O)ccc21 [LI, liquiritin] |  |

Reference: article PMC13028611, “Hepatotoxicity Assessment of Anshenbunao Syrup by Multi-Component Quantification In Vivo/In Vitro and Cell Biological Evaluations” (Pharmaceuticals, 2026)
